≈ marks a conversion by molar mass, not a printed value.
What was measured:
[1] = tested on: A549, human non-small cell lung cancer cells; assay: cells; type: cell-based
p42 = type: binding, Xanthomonas oryzae pv. oryzae
rice = conditions: in vivo
in vivo = conditions: Brachydanio rerio (zebrafish)

Molecule `O=c1[nH]cc(F)c(=O)[nH]1` [5-FU, 5-fluorouracil, reference compound] has an IC50 [1] of 1.42 µM.
With `C#CCNc1ncnc2ccccc12` [NP, N-(prop-2-yn-1-yl)quinazolin-4-amine] the “proteome labeling in situ or in vitro” value (p42) was “failed to label any proteins”.
For `C=CC(=O)Nc1ncnc2ccc(Br)cc12` [compound 7a, N-(6-bromoquinazolin-4-yl)acrylamide], the “phytotoxicity on rice leaves” value (rice) was “no signs of damage”, the LC50 at 48 h (in vivo) was 0.53 µg/mL (≈ 1.91 µM) and the LC50 at 72 h (in vivo) was 0.48 µg/mL (≈ 1.73 µM). For the same molecule, the LC50 at 96 h (in vivo) was 0.48 µg/mL (≈ 1.73 µM), the IC50 [1] was 23.1 µM and the “competition of probe P1 labeling of p42” value (p42) was “dose-dependently competed”.
For `C#CCN(C(=O)C=C)c1ncnc2ccc(Br)cc12` [probe P1, N-(6-bromoquinazolin-4-yl)-N-(prop-2-yn-1-yl)acrylamide], the “proteome labeling in situ or in vitro” value (p42) was “prominent labeling”, the “time after which p42 was visualized” value (p42) was 5 min and the “time to complete labeling of p42” value (p42) was 2 h.

— paper PMC12302339 (Journal of Advanced Research, 2024)
